How the values were obtained:
HSC = experiment: Competitive repopulation assay, CD45.1/2 mouse model; type: in vivo; details: CD45.2 mice, one month in drinking water, ~2.0 mg/kg
Source text: FIGS. 2A-2G provide graphs and images showing N2N1 and VA support HSC/progenitors populations under pressure of differentiation and tissue culture stress in vitro and in vivo. General schema of CFU (A) and LTC-IC assays (B). […] Representative result of three NBM is shown. (D) The morphology of cells at the end of 1st part of LTC-IC assay is shown. The total number of cells at this step of experiment was always larger in the samples treated with experimental drugs. (E) Treatment of mice with N2N1 promotes maintenance of normal HSC in vivo. Competitive repopulation assay performed on CD45.2 mice treated with N2N1. Summary of four animals, three hematopoietic tissues. […] Representative result of three patients is shown.
The potential positive impact of identified pro-survival catalysts on viability and propagation of HSC was evaluated in competitive repopulation assay based on CD45.1/2 mouse model, a “gold standard” for HSC performance.

[1] = Non-enzymatic electron transfer from NAD(P)H to oxidized glutathione; type: biochemical; details: potassium phosphate buffer pH 7.0, 37° C.
Protocol: FIGS. 4A 4B provide graphs and schemes showing VA's mechanism of action. […] (A) Different concentrations of VA were incubated with GssG in potassium phosphate buffer at pH 7.0, 37° C. […] The effective concentrations of VA were similar to the detected for the extension of RLS in normal or progeroid cells. (B) The proposed molecular mechanism of glutathione reduction catalyzed by VA. The slightly acidic buffers (pH 7.0) supplemented with potassium (100 mM) were the preferable reaction conditions.
Lead compounds were tested on their possible catalytic amelioration of enzyme kinetics with all above mentioned proteins: recombinant and presented in cellular lysates.

[2] = test system: global protein disulfide bonds; experiment: Global protein disulfide bonds (Elman's reagent, biotin-switch assay); type: cell-based; details: Elman's reagent or biotin-switch assay
Source text: FIGS. 3A-3C provide graphs and schemes showing the preliminary data that directed the plan to find the mechanism of action of identified anti-aging compounds. (A) Substantial decrease in oxidized sulfhydryl groups were detected after several days of treatment with VA. […] The inventors decided to check if VA can participate in catalytic reactions performed by the enzymes involved in generation of reductive potential or its utilization by transferring the electrons to oxidized disulfide bonds t. […] In particular, catalytic reduction of molecular oxygen and cytochrome c was observed. Therefore, the inventors decided to take into account the most prominent enzymes that were noted to be involved into initiation or prevention aging-like traits.
Based on results obtained on tissue cultured cells (increased RLS) and an increase in the numbers of HSC surrogate cells (LTC-IC or CFU), the inventors set their future goal to develop a novel pharmacological treatment for AA patients and potentially for other BMF. […] The only persistent effect of VA was considerable reduction in global protein disulfide bonds (up to 30%) detected by Elman's reagent or direct labelling of reduced sulfhydryl groups with biotin-switch assay (FIG. 3A). […]

With `O=C1/C(=N/O)C=Cc2ccccc21` [N2N1, 1-naphthoquinone-2-monoxime] the “HSC number / repopulation capacity” value (HSC) was “increased number of HSC or/and increased repopulation capacity”.

In the case of `O=C1NC(=O)C(=NO)C(=O)N1` [VA, 2,4,5,6(1H,3H)-pyrimidine-tetrone 5-oxime], the “rate of NAD(P)H oxidation by GssG” value [1] is reported as “substantially increase the reaction rate” and the “reduction in global protein disulfide bonds” value [2] is reported as “up to 30%”.

Source: patent publication US11723907B2, “Anti-aging compounds” (THE CLEVELAND CLINIC FOUNDATION, priority 2017, dated 2023)
